Among the data in patent US10722501B2 (BAYER AKTIENGESELLSCHAFT, priority 2016, dated 2020) are IC50 values, retold here.

Structures are written as SMILES.

For orientation: IC50 means the concentration that gives 50% inhibition.

For this assay, the target named is T1, recombinant full-length human prolyl endopeptidase (PREP) (Homo sapiens, UniProt P48147).
T1 construct: To recombinant full-length human prolyl endopeptidase (PREP, R&D-Systems, 4308-SE); purchased R&D-Systems 4308-SE
T1 sequence (P48147 1-710): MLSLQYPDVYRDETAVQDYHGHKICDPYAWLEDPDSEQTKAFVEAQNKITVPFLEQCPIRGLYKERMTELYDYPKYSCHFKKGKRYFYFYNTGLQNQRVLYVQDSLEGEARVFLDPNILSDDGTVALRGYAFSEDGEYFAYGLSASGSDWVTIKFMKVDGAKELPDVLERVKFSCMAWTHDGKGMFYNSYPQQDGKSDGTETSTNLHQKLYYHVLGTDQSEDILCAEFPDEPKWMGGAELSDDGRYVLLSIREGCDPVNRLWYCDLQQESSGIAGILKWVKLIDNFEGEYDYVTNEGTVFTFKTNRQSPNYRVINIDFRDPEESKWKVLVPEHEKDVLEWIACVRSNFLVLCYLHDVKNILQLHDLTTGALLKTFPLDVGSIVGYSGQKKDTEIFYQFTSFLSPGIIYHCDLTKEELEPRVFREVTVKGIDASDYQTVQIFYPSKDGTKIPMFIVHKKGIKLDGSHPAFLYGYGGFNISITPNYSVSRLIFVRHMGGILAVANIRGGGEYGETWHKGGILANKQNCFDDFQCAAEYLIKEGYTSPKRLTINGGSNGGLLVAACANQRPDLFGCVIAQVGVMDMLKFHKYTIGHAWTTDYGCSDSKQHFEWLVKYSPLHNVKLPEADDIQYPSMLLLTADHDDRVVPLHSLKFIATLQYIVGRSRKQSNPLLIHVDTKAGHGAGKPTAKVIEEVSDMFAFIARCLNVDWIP
Kind of assay: Biochemical human prolyl endopeptidase (PREP) assay with fluorescently labelled substrate. The following applies: substrate Z-Gly-Pro-AMC 50 μM, 32° C., 60 min; some as mean values from multiple independent determinations. The essentials:
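0.4 nM (final, example) recombinant PREP in pH 7.5 Tris buffer with EDTA, GSH, BSA and Brij-35; compounds at 1 nM to 30 μM. Reaction started with 50 μM Z-Gly-Pro-AMC and followed by fluorescence (ex 360/em 465 nm) at 32° C for 60 min. IC50 interpolated from percent activity based on initial slopes.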
Take `O=C([C@@H]1CCCc2nn(Cc3cccc(Cl)n3)c(=O)n21)N1C[C@@H](F)[C@@H](F)C1` [Example 385, (5S)-2-[(6-Chloropyridin-2-yl)methyl]-5-{[(3R,4S)-3,4-difluoropyrrolidin-1-yl]carbonyl}-5,6,7,8-tetrahydro[1,2,4]triazolo[4,3-a]pyridin-3(2H)-one]: the IC50 is 1.8 nM.

As to `Cc1ccc(Cn2nc3n(c2=O)C(C(=O)N2CC(O)(C(F)(F)F)C2)CCC3)cc1` (racemic) [Example 131, (5RS)-{[3-Hydroxy-3-(trifluoromethyl)azetidin-1-yl]carbonyl}-2-(4-methylbenzyl)-5,6,7,8-tetrahydro[1,2,4]triazolo[4,3-a]pyridin-3(2H)-one], the IC50 is 107 nM.

With `O=C([C@@H]1CCCc2nn(Cc3cc4cccnc4nc3C(F)(F)F)c(=O)n21)N1CCC(F)(F)C1` [Example 418, (5S)-5-[(3,3-Difluoropyrrolidin-1-yl)carbonyl]-2-{[2-(trifluoromethyl)-1,8-naphthyridin-3-yl]methyl}-5,6,7,8-tetrahydro[1,2,4]triazolo[4,3-a]pyridin-3(2H)-one], the IC50 stood at 2.24 nM.

Consider `O=C(C1C(C(F)(F)F)CCc2nn(Cc3ccnc(C(F)(F)F)c3F)c(=O)n21)N1CC(F)C1` (racemic) [Example 302, (5RS,6RS)-5-[(3-Fluoroazetidin-1-yl)carbonyl]-2-{[3-fluoro-2-(trifluoromethyl)pyridin-4-yl]methyl}-6-(trifluoromethyl)-5,6,7,8-tetrahydro[1,2,4]triazolo[4,3-a]pyridin-3(2H)-one], for which the IC50 was determined as 49.5 nM.

In the case of `O=C(C1CC(C(F)(F)F)Cc2nn(Cc3ccnc(C(F)(F)F)c3F)c(=O)n21)N1CCC(F)(F)C1` (single isomer, unassigned) [Example 252, (5RS,7RS)-5-[(3,3-Difluoropyrrolidin-1-yl)carbonyl]-2-{[3-fluoro-2-(trifluoromethyl)pyridin-4-yl]methyl}-7-(trifluoromethyl)-5,6,7,8-tetrahydro[1,2,4]triazolo[4,3-a]pyridin-3(2H)-one], the IC50 was found to be 3.1 nM.

With `O=C([C@@H]1CCCc2nn(Cc3ccnc(C(F)(F)F)c3F)c(=O)n21)N1C[C@@H](F)[C@@H](F)C1` [Example 480, (5S)-5-{[(3R,4S)-3,4-Difluoropyrrolidin-1-yl]carbonyl}-2-{[3-fluoro-2-(trifluoromethyl)pyridin-4-yl]methyl}-5,6,7,8-tetrahydro[1,2,4]triazolo[4,3-a]pyridin-3(2H)-one], the IC50 worked out at 0.52 nM.

With `O=C([C@@H]1CCCc2nn(Cc3ncc(C(F)(F)F)cc3Cl)c(=O)n21)N1CCCC1` [Example 106, (5S)-2-{[3-Chloro-5-(trifluoromethyl)pyridin-2-yl]methyl}-5-(pyrrolidin-1-ylcarbonyl)-5,6,7,8-tetrahydro[1,2,4]triazolo[4,3-a]pyridin-3(2H)-one], the IC50 worked out at 1.7 nM.

Turning to `O=C([C@@H]1CCCc2nn(Cc3cc(C(F)(F)F)nc4ccccc34)c(=O)n21)N1C[C@@H](F)[C@@H](F)C1` [Example 497, (5S)-5-{[(3R,4S)-3,4-Difluoropyrrolidin-1-yl]carbonyl}-2-{[2-(trifluoromethyl)quinolin-4-yl]methyl}-5,6,7,8-tetrahydro[1,2,4]triazolo[4,3-a]pyridin-3(2H)-one], the IC50 turned out to be 0.18 nM.

In the case of `CC1Cc2nn(Cc3ccc(C(F)(F)F)nc3)c(=O)n2C(C(=O)N2CCC(F)(F)C2)C1` (racemic) [Example 332, (5RS,7RS)-5-[(3,3-Difluoropyrrolidin-1-yl)carbonyl]-7-methyl-2-{[6-(trifluoromethyl)pyridin-3-yl]methyl}-5,6,7,8-tetrahydro[1,2,4]triazolo[4,3-a]pyridin-3(2H)-one], the IC50 was determined as 3.9 nM.

Regarding `O=C([C@@H]1CCCc2nn(Cc3ccc(Br)cc3F)c(=O)n21)N1C[C@@H](F)[C@@H](F)C1` [Example 215, (5S)-2-(4-Bromo-2-fluorobenzyl)-5-{[(3R,4S)-3,4-difluoropyrrolidin-1-yl]carbonyl}-5,6,7,8-tetrahydro[1,2,4]triazolo[4,3-a]pyridin-3(2H)-one], the IC50 was determined as 0.53 nM.

As for `CC1Cc2nn(Cc3ccc(C(F)(F)F)nc3)c(=O)n2C(C(=O)N2CC(O)C2)C1` (racemic) [Example 134, (5RS,7RS)-5-[(3-Hydroxyazetidin-1-yl)carbonyl]-7-methyl-2-{[6-(trifluoromethyl)pyridin-3-yl]methyl}-5,6,7,8-tetrahydro[1,2,4]triazolo[4,3-a]pyridin-3(2H)-one], the IC50 stood at 79 nM.

`O=C(C1C(C(F)(F)F)CCc2nn(Cc3ccc(C(F)(F)F)nc3)c(=O)n21)N1CC[C@H](F)C1` (single isomer, unassigned) [Example 286]: the IC50 is 98.5 nM.

For the compound `O=C(C1CC(C(F)(F)F)Cc2nn(Cc3ncc(C(F)(F)F)cc3Cl)c(=O)n21)N1CCC(F)(F)C1` (single isomer, unassigned) [Example 565, (5RS,7RS)-2-{[3-Chloro-5-(trifluoromethyl)pyridin-2-yl]methyl}-5-[(3,3-difluoropyrrolidin-1-yl)carbonyl]-7-(trifluoromethyl)-5,6,7,8-tetrahydro[1,2,4]triazolo[4,3-a]pyridin-3(2H)-one], the IC50 is 1.5 nM.

`Cc1ccc(Cn2nc3n(c2=O)C(C(=O)N2CC(F)C2)CCC3)cc1` (racemic) [Example 112, (5RS)-5-[(3-Fluoroazetidin-1-yl)carbonyl]-2-(4-methylbenzyl)-5,6,7,8-tetrahydro[1,2,4]triazolo[4,3-a]pyridin-3(2H)-one]: the IC50 came to 1.59 nM.

Take `CC1Cc2nn(Cc3ccc(C(F)(F)F)nc3)c(=O)n2C(C(=O)N2CC(F)C2)C1` (racemic) [Example 341, (5RS,7RS)-5-[(3-Fluoroazetidin-1-yl)carbonyl]-7-methyl-2-{[6-(trifluoromethyl)pyridin-3-yl]methyl}-5,6,7,8-tetrahydro[1,2,4]triazolo[4,3-a]pyridin-3(2H)-one]: the half-inhibitory concentration (IC50) was determined as 3.7 nM.

Regarding `O=C([C@@H]1CCCc2nn(Cc3ccc(C(F)(F)F)nc3)c(=O)n21)N1CCC2CC21` (single isomer, unassigned) [Example 201], the IC50 stood at 5.45 nM.

Turning to `Cc1ccc(Cn2nc3n(c2=O)[C@H](C(=O)N2CC[C@@H]2C)CCC3)cc1` [Example 148, (5S)-5-{[(2S)-2-Methylazetidin-1-yl]carbonyl}-2-(4-methylbenzyl)-5,6,7,8-tetrahydro[1,2,4]triazolo[4,3-a]pyridin-3(2H)-one], the IC50 was found to be 21.3 nM.

For `O=C([C@@H]1CCCc2nn(Cc3ncccc3Cl)c(=O)n21)N1CC(F)C1` [Example 396, (5S)-2-[(3-Chloropyridin-2-yl)methyl]-5-[(3-fluoroazetidin-1-yl)carbonyl]-5,6,7,8-tetrahydro[1,2,4]triazolo[4,3-a]pyridin-3(2H)-one], the IC50 stood at 6 nM.

As to `O=C(C1CC(C(F)(F)F)Cc2nn(Cc3ncc(F)cc3Cl)c(=O)n21)N1CCC(F)(F)C1` (racemic) [Example 575, (5RS,7RS)-2-[(3-Chloro-5-fluoropyridin-2-yl)methyl]-5-[(3,3-difluoropyrrolidin-1-yl)carbonyl]-7-(trifluoromethyl)-5,6,7,8-tetrahydro[1,2,4]triazolo[4,3-a]pyridin-3(2H)-one], the IC50 was 7.4 nM.

In the case of `O=C(C1CCCc2nn(Cc3ccc(F)c(F)c3)c(=O)n21)N1CCC(F)(F)C1` (racemic) [Example 83, (5RS)-2-(3,4-Difluorobenzyl)-5-[(3,3-difluoropyrrolidin-1-yl)carbonyl]-5,6,7,8-tetrahydro[1,2,4]triazolo[4,3-a]pyridin-3(2H)-one], the IC50 is 2.1 nM.

`O=C([C@@H]1CCCc2nn(Cc3ncc(C(F)(F)F)cc3Cl)c(=O)n21)N1CCC(F)(F)C1` [Example 404, (5S)-2-{[3-Chloro-5-(trifluoromethyl)pyridin-2-yl]methyl}-5-[(3,3-difluoropyrrolidin-1-yl)carbonyl]-5,6,7,8-tetrahydro[1,2,4]triazolo[4,3-a]pyridin-3(2H)-one]: the IC50 came to 2.33 nM.

In the case of `O=C(C1CCCc2nn(Cc3cccc(F)c3)c(=O)n21)N1CCCC1` (racemic) [Example 16, (5RS)-2-(3-Fluorobenzyl)-5-(pyrrolidin-1-ylcarbonyl)-5,6,7,8-tetrahydro[1,2,4]triazolo[4,3-a]pyridin-3(2H)-one], the IC50 was found to be 2.2 nM.

`Cc1ccc(Cn2nc3n(c2=O)[C@H](C(=O)N2CC4(C2)CC4(F)F)CCC3)cc1` [Example 191, (5S)-5-[(1,1-Difluoro-5-azaspiro[2.3]hex-5-yl)carbonyl]-2-(4-methylbenzyl)-5,6,7,8-tetrahydro[1,2,4]triazolo[4,3-a]pyridin-3(2H)-one]: the IC50 stood at 2.8 nM.
